Reference: patent US20260256799A1, “INHIBITORS FOR TREATING SOLID TUMOURS” (UNIVERSITY OF SOUTHAMPTON, priority 2023, published 2026)

What was measured:
TC-1 cells = experiment: Isograft model TC-1 alone (control, myoCAF-low tumours); type: in vivo, C57/BL6 female mice; conditions: AZD0156 20 mg/Kg oral gavage daily
Description: All mouse experiments were performed according to national and international guidelines and were approved by the authors' institutional review board and the UK Home Office. Xenograft model: 6.7×10^5 PT cells±2×10^6 HFFF2 cells were resuspended in 100 μl PBS and injected s.c. in the flank of partially immunocompromised, male RAG1−/−C57BL/6 mice (3-5 months old). Isograft models: 0.5×10^5 TC-1 cells±3×10^5 TGF-β1-treated murine lung fibroblasts (myoMLFs) or 1×10^5 MC38 cells±5×10^5 TGF-β1-treated murine colon fibroblasts (myoMCFs) were resuspended in 100 μl PBS and injected s.c. in the flank of C57/BL6 female mice (6-8 weeks old). 5-8 animals for both models were used per group. Tumour size was measured over time using an electronic caliper and calculated using the formula 4π/3×r3 [radius (r) calculated from the average diameter, measured as the tumour width and length]. […]
The area under the curve (AUC) for each individual tumour within a treatment group for multiple experiments was analyzed by ordinary Two-way Anova using as two independent variables ‘the experiments’ (factor 1) and ‘the treatments’ (factor 2), and as dependent variable ‘the AUC’ of each mouse; then, the inventors looked at just factor 2. […]

[1] = test system: MC38 cells + TGF-β1-treated murine colon fibroblasts (myoMCF); experiment: Isograft model MC38 + myoMCF (myoCAF-high tumours); type: in vivo, C57/BL6 female mice; conditions: AZD0156, myoCAF-high MC38 tumours
Description: SMA immunohistochemistry (IHC; Sigma Aldrich; A2547) on FFPE tissues was performed as previously: in brief, tissues were fixed in 4% paraformaldehyde and embedded in paraffin. 4 μm sections were de-paraffinized, rehydrated and antigen retrieved for 20 minutes at 97° C. using a predefined program on the Dako PT links. Antigen retrieval was performed using Envision FLEX High pH. Endogenous peroxidase activity was blocked using 3% hydrogen peroxide. Mouse Ig blocking reagent (M.O.M kit vector labs) was applied for 1 hour. Primary antibody incubation (1:100) in M.O.M diluent (vector labs) was for 20 minutes. […] Images were captured using an Olympus CKX41 microscope with Cell B imaging software. % area of staining was calculated using Fiji software (java) by running the ‘color deconvolution’ tool analyzing H DAB. […] The mean was calculated from 2 or 3 mice/experimental group.
Quantification of SMA staining in mouse tumours was carried out using color thresholding and deconvolution in Fiji. […]
CD8 and CD4 IHC was performed on frozen tissue embedded in OCT using [YTS169 (CD8; in house) and RM4-5 (CD4; BD) (FIG. 6c & FIG. 12e). […] CD8 and CD4 T-cells were counted from ten randomly selected fields of view (FoV) from the tumour by a consultant pathologist (GJT). […]

[2] = monotherapy, dose escalation phase 1; cited from earlier work

Compound: CN(C)CCCOc1ccc(-c2ccc3ncc4c(c3c2)n(C2CCOCC2)c(=O)n4C)cn1 [AZD0156]
- growth of control (myoCAF-low) tumours (TC-1 cells): minimal effect
- CD4 T-cell infiltration (IHC) [1]: unaffected
- location of CD8 T-cells, tumour periphery to tumour core (IHC) [1]: significant relocation
- adverse effects [2]: not yet reporting to be associated with adverse effects
